The values below come from patent US20240024335A1, “TREATMENT AND PREVENTION OF ANAEMIA OF INFLAMMATION” (Sanquin IP B.V., priority 2020, published 2024).

“Also recorded” adds a separate entry of the source.

The test system of one data set is sickle cell patients. The conditions noted are these: Ataga et al.; cited from earlier work.
Another data set concerns donor RBCs. The data set can be described thus: Flow assay: adhesion of donor RBC to laminin-α5 in response to IL-8 and sera from sepsis patients.
The conditions of data set [1]: in vivo; cited from earlier work.

For `NC(=O)C(c1ccccc1)(c1ccc(F)cc1)c1ccc(F)cc1` [Senicapoc, 4-fluoro-α-(4-fluorophenyl)-α-phenyl-benzeneacetamide], the “Reduction of vaso-occlusive events” value with sickle cell patients is given as “did not result in reduction of vaso-occlusive events”. In addition, the “AI-mediated degradation of RBC in vitro” value in the data set on donor RBCs (in vitro, see Example 1) was “counteracts AI-mediated degradation of RBC”. For the same compound, the Tolerability entry in data set [1] was “well-tolerated”.

As for `Clc1ccccc1C(c1ccccc1)(c1ccccc1)n1cccn1` [TRAM34, 1-[(2-chlorophenyl)diphenylmethyl]-1H-pyrazole], the “Adhesion of donor RBCs to laminin-α5 in response to IL-8 incubation” value in the data set with donor RBCs (RBCs pre-incubated with inhibitor 30 min, then IL-8 30 min at 37° C., FIG. 8B, 8C) is listed as “inhibited; also recorded: counteracted”. The “Adhesion of donor RBCs to laminin-α5 in response to sera of sepsis patients” value in the data set on donor RBCs (RBCs pre-incubated with inhibitor 30 min, then sera of sepsis patients 30 min at 37° C., FIG. 8D) was “inhibited”.
